Assay [1] has as its system PanC-1 pancreatic cancer cells. The experiment in a line: hexoseaminidase cell proliferation assay, PanC-1. It is filed as cell-based. Here is the method:
Using hexoseaminidase assay, we determined the effect of the compounds on cell proliferation. […] The IC50 value at 48 hours is below 10 μM in all the cancer cell lines.
Using hexoseaminidase assay, we determined the effect of the compounds on cell proliferation. […] The MRL16 IC50 value at 48 hours is below 0.3 μM in Colon cancer cell lines. […] Overall, the analogs can be used as chemotherapeutic agents against colon and pancreatic cancer.

The next assay has as its system HCT116 cells. The experiment in a line: colony formation, HCT116. In kind it is cell-based.
Assay [2] has as its system caspase 3, caspase 8, caspase 9, Bcl2, BclXL, cytochrome c. The experiment in a line: western blot analysis, apoptosis proteins. In kind it is cell-based. The following applies: HCT116 and SW480 cells, 48 h. How it is done:
The pathways for apoptosis were studied to determine whether the analogs were capable of inhibiting certain aspects of the pathways. […] HCT116 and SW480 cells treated with MRL, THB, THBCD, DHB, DHBCD and CD for 48 h and performed for western blot analysis. […] It is shown that THBCD also activates caspase 8 and caspase 9. Furthermore, THB and THBCD inhibit anti-apoptotic protein Bcl2 and BclXL levels. […] HCT116 and SW480 cells treated with MRL, THB, THBCD, DHB, DHBCD and CD for 48 h and performed for western blot analysis. Furthermore, THB and THBCD inhibit phosphorylation of Akt (FIG. 3).
In general terms: Immunoblotting shows a protein as a band on a membrane.

A further assay deals with T1, DCLK1 (Homo sapiens, UniProt O15075).
T1 construct: we performed an in vitro kinase assay using recombinant DCLK1
T1 sequence (O15075 whole entry): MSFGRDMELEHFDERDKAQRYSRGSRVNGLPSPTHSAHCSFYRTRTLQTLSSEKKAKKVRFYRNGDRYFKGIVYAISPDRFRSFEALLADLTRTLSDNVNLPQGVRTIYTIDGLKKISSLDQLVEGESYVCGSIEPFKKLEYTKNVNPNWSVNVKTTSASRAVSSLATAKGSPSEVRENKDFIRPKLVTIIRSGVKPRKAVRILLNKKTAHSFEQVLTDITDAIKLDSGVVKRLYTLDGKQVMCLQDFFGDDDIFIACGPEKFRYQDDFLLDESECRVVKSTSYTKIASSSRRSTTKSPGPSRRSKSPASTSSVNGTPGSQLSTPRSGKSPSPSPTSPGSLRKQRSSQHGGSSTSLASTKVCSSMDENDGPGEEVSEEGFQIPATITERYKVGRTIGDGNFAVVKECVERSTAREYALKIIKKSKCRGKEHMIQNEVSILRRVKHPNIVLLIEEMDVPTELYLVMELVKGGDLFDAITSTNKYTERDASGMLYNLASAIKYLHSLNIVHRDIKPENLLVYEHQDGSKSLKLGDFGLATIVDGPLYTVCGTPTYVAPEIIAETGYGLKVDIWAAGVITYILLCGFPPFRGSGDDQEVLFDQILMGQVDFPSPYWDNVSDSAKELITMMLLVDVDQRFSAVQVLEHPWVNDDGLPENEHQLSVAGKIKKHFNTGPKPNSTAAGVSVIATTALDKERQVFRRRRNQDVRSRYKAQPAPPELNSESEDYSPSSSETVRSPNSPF
Briefly: in vitro kinase assay using recombinant DCLK1. In kind it is biochemical. The following applies: recombinant DCLK1, dose dependent. An excerpt: DCLK1 encodes a calmodulin-like kinase domain, and has homology to calmodulin kinases CAMKII and CAMKIV. We performed homology modeling and determined that THB can interact with the kinase domain with binding energy of −5.94. Furthermore we performed an in vitro kinase assay using recombinant DCLK1. […] Furthermore, THB and THBCD inhibit cancer stem cell marker DCLK1 expression in the xenograft tumors in both immunohistochemistry and western blot analysis (data not shown).

Assay [3] deals with HCT116 colon cancer tumor xenografts. The experiment in a line: HCT116 colon cancer tumor xenografts in nude mice. It is filed as in vivo. How it is done: For in vivo, HCT116 cells were injected into the blanks of nude mice, after one week when there was a palpable tumor and these compounds were injected intraperitonially (5 mg/kg body weight) every day for 21 days. Tumor volumes were measured weekly. On 29th day mice were euthanized and the tumors were removed and weighed for use in histology, immunohistochemistry, and gene expression studies. Both THB and THBCD inhibited growth of the tumor. It is noted that the images of FIG. 4C are from left to right: control; THB; and THBCD.
For in vivo, HCT116 cells were injected into the blanks of nude mice, after one week when there was a palpable tumor and these compounds were injected intraperitonially (5 mg/kg body weight) every day for 21 days. Tumor volumes were measured weekly. On 29th day mice were euthanized and the tumors were removed and weighed for use in histology, immunohistochemistry, and gene expression studies. DBQ inhibited the growth of the tumor. It is noted that the images of FIG. 16C are from left to right: control; and DBQ.
FIGS. 19A and 19B show MRL 16 inhibits tumor growth, such as on colon cancer tumor xenografts. For in vivo, HCT116 cells were injected into the blanks of nude mice, after one week when there was a palpable tumor and these compounds were injected intraperitonially (2 mg/kg body weight) every day for 21 days. Tumor volumes were measured weekly. On 29th day mice were euthanized and the tumors were removed and weighed. MRL16 inhibited growth of the tumor.

The mark [4] stands for this setting: intraperitoneal 5 mg/kg body weight every day for 21 days.

SMILES strings stand for the structures.

Broadly, the IC50 is the concentration that inhibits the measured activity by half. Lower therefore signals greater potency. `O=C(N/N=C/c1ccc(O)c(O)c1O)c1cc2ccccc2cc1O` [MRL THB] registered an IC50 in assay [1] (PanC-1, 24 h) of more than 50 µM. The compound also gave an IC50 in assay [1] (PanC-1, 48 h) of 10 µM. The same compound displayed an IC50 in assay [1] (PanC-1, 72 h) of 8 µM. Also, in the assay on HCT116 cells, the colony formation entry is “significantly inhibited colony formation”. In assay [2], the “anti-apoptotic protein Bcl2 and BclXL levels” value is given as “inhibit”; the cytochrome c result is recorded as “inhibit”. In addition, at DCLK1, the DCLK1 kinase activity result was “significantly reduced”. In addition, in assay [3] (setting [4]), the tumor volume entry is reported as “significantly reduced” and the tumor weight result was “significantly reduced”. In assay [3] (tumor tissues), the “phosphorylation of Akt” value is “significantly reduced”. Besides, in assay [3] (tumor xenograft tissues, immunohistochemistry and western blot), the “COX-2, VEGF and cyclin D1 expression” value was “significantly reduced”. Moreover, the “angiogenesis by CD31 staining” value in assay [3] (xenograft tumor tissues, immunohistochemistry) is on record as “inhibit”. For the same compound, the DCLK1 expression entry in assay [3] (xenograft tumors, immunohistochemistry and western blot) was “inhibit”.
